Read-outs that look alike come from different tables or passages of the source.
Key:
[1] = system: cryopreserved human hepatocytes; assay: Fraction of hepatocytes remaining (DAPI cell count) in CYP induction study; type: cell-based; settings: 48 hours
Description: After completion of the incubation, the cells were washed with DPBS. After washing with DPBS, the cells were fixed using 3.7% p-formaldehyde in DPBS for one hour. The formaldehyde was removed and 0.6 μmol/L DAPI in DPBS was added. The cells were stained by DAPI for 20 minutes and then washed three times with DPBS. Cells were counted using an ArrayScan II (Cellomics, Pittsburgh, Pa.) with a 5× objective lens. Fraction of hepatocytes remaining was calculated using the number of cells found at a treatment condition divided by cells found with the vehicle control.

CYP3A4/5 [2] = assay: in vitro; settings: human, pooled human liver microsomes
CYP1A [3] = assay: in vitro; settings: human, pooled human liver microsomes, pH 7.4
CYP3A4/5 [4] = assay: Time-dependent inactivation (TDI) of CYP3A4/5 in human liver microsomes; type: in vitro ADME; settings: for inactivation of CYP3A4/5 (in words): using midazolam as probe
CYP2C9 [5] = assay: in vitro; settings: human, pooled human liver microsomes, pH 7.4
CYP2D6 = CYP2D6 (Homo sapiens (Human), UniProt P10635); assay: Reversible CYP inhibition in pooled human liver microsomes, CYP2D6; settings: read-out: Reversible inhibition IC50 CYP2D6
[6] = Metabolic stability in dog liver microsomes; settings: pH 7.4
[7] = system: human cytochromes P450 (CYP); assay: Reversible CYP inhibition in human liver microsomes, overall assessment
[8] = Metabolic stability in human liver microsomes; settings: for metabolic clearance in human liver microsomes (in words): HLM; for CLint scaled: human, human liver microsomes, pH 7.4
[9] = Metabolic stability in rat liver microsomes; settings: pH 7.4
CYP2C19 = CYP2C19 (Homo sapiens (Human), UniProt P33261); settings: read-out: Reversible inhibition IC50 CYP2C19; human liver microsomes
CYP2C8 = CYP2C8 (Homo sapiens (Human), UniProt P10632); assay: Reversible CYP inhibition in pooled human liver microsomes, CYP2C8; settings: read-out: Reversible inhibition IC50 CYP2C8
[10] = Metabolic stability in monkey liver microsomes; settings: cynomolgus monkey, pH 7.4
[11] = Metabolic stability in mouse liver microsomes; settings: pH 7.4
CYP1A [12] = assay: CYP induction in cryopreserved human hepatocytes (mRNA), CYP1A; type: in vitro ADME; settings: positive control β-naphthoflavone
CYP3A = assay: CYP induction in cryopreserved human hepatocytes (mRNA), CYP3A; type: in vitro ADME; settings: positive control rifampicin
CYP2B6 = assay: CYP induction in cryopreserved human hepatocytes (mRNA), CYP2B6; type: in vitro ADME; settings: positive control phenobarbital
Karpas-422 xenograft = assay: Efficacy study in Karpas-422 xenograft model; type: in vivo, mice
CYP2C9 [13] = assay: CYP induction in cryopreserved human hepatocytes (mRNA), CYP2C9; type: in vitro ADME; settings: positive control rifampicin
[14] = type: in vivo; settings: oral, BID, up to 28 days, Karpas-422 xenograft mice
EZH2 (PRC2 complex) = EZH2 (PRC2 complex) (Homo sapiens (Human), UniProt Q15910); assay: PRC2 enzyme assay on peptide substrate (EZH2 peptide v2)
[15] = target: wild-type EZH2 (PRC2 complex) (Homo sapiens (Human), UniProt Q15910); assay: Wild-type PRC2 enzyme assay (WT EZH2)
[16] = pH 7.4, probe testosterone (250 μmol/L), CYP3A4/5, human liver microsomes, read-out: Time-Dependent Inactivation KI

Sequence of CYP2C19 (P33261 whole entry): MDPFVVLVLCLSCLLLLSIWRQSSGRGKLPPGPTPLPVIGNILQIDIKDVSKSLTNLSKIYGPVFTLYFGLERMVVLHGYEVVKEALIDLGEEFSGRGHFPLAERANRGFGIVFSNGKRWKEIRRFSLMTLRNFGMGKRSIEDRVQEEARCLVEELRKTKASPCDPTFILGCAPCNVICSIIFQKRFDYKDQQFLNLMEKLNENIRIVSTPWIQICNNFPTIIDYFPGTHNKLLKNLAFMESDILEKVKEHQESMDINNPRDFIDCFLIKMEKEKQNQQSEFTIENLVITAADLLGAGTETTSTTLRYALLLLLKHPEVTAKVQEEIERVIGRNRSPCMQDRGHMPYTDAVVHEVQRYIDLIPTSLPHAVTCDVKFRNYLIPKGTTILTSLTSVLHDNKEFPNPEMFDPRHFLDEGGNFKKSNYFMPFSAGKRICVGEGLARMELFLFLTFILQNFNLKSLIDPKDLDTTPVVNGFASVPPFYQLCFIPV
Sequence of CYP2C8 (P10632 whole entry): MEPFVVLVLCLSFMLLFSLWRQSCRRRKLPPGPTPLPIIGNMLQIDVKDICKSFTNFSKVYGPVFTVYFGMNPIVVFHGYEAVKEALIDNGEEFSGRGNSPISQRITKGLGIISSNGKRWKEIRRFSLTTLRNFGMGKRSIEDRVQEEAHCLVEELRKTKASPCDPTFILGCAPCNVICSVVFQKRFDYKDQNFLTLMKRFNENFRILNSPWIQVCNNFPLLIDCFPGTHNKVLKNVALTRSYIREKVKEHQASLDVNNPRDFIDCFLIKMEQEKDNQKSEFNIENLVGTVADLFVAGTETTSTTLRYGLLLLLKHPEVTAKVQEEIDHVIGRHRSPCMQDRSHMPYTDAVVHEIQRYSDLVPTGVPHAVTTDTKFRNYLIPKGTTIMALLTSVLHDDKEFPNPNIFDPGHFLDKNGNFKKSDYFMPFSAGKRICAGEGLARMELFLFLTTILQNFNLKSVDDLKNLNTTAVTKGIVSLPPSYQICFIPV
Sequence of CYP2D6 (P10635 whole entry): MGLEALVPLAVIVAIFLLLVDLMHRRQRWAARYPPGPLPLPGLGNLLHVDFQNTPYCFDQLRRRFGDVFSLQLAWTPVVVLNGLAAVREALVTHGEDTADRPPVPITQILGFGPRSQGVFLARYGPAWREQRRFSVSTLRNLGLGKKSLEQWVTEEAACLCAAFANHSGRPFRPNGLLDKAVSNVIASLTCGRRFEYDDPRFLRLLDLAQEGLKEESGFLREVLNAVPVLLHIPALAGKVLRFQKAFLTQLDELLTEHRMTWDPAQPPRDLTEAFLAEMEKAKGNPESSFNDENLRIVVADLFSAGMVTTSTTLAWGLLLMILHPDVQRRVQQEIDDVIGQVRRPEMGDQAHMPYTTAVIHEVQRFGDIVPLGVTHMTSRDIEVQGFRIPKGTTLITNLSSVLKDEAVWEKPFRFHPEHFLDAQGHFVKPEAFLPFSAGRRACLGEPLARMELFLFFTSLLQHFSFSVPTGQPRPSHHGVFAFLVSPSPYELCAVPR
Sequence of EZH2 (PRC2 complex) (Q15910 other isoform, or with tags, fused parts or gaps): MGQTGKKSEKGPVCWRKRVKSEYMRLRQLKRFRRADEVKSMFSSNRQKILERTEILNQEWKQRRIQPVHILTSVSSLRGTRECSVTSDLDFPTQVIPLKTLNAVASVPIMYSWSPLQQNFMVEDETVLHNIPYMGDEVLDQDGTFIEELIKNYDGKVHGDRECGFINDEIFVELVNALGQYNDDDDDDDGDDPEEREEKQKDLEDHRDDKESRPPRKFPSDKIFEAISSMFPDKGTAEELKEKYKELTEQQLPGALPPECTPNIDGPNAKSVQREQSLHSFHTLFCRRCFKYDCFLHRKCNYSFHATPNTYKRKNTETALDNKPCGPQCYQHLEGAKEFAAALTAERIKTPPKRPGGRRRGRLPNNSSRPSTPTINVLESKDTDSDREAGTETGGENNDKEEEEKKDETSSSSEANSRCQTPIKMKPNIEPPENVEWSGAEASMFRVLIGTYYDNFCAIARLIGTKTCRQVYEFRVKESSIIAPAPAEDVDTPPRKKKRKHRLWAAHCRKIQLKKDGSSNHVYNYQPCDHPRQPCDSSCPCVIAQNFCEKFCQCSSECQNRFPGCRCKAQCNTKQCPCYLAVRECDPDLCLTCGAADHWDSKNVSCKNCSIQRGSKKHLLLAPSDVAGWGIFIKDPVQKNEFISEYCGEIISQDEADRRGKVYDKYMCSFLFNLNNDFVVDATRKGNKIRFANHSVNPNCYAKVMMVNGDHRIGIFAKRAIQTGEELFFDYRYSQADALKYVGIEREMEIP
Sequence of EZH2 (PRC2 complex) (O75530 whole entry partner): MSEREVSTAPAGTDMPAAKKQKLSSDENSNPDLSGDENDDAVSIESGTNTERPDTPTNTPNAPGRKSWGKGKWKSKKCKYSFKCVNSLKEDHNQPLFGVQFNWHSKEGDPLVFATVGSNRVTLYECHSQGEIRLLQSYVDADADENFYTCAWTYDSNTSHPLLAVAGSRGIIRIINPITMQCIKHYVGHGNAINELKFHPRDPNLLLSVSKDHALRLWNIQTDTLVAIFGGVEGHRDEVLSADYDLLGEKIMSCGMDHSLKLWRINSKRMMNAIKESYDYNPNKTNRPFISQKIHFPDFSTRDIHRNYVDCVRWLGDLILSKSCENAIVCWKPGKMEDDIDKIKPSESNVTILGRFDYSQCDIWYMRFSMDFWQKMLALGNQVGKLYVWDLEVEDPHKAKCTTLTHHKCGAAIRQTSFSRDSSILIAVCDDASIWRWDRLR
Sequence of EZH2 (PRC2 complex) (Q15022 whole entry partner): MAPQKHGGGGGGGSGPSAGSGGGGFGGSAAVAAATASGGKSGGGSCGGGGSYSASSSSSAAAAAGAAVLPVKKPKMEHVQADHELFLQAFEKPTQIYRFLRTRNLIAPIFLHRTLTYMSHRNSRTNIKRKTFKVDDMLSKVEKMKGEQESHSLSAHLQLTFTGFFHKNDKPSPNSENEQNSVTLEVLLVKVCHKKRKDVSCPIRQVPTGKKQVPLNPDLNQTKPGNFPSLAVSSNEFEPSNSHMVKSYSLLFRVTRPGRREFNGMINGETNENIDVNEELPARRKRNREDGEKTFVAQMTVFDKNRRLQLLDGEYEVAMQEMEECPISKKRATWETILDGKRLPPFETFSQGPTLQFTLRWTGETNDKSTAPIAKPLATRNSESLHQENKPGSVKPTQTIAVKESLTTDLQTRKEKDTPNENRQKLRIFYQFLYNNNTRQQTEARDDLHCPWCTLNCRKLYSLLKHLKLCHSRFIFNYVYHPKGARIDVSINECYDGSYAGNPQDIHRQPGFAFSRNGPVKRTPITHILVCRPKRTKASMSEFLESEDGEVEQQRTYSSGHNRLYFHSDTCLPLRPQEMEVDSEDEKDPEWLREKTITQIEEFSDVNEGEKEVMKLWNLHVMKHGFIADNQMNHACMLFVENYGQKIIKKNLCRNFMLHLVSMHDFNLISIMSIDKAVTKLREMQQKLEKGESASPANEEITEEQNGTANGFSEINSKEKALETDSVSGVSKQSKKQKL
Sequence of EZH2 (PRC2 complex) (Q09028 whole entry partner): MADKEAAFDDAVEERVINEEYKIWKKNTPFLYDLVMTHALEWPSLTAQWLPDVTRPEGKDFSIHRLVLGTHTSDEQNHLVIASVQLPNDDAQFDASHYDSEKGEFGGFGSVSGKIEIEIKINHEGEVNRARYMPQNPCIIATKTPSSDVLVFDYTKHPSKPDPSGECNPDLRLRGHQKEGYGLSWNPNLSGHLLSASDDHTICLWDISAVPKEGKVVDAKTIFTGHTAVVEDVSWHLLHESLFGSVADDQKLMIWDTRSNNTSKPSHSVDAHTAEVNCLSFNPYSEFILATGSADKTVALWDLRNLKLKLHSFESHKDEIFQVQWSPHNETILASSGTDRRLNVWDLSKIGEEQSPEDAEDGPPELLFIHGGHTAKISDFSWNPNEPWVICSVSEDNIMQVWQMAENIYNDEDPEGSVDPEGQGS
Sequence of wild-type EZH2 (PRC2 complex) (Q15910 other isoform, or with tags, fused parts or gaps): as the sequence (Q15910 other isoform, or with tags, fused parts or gaps) above
Sequence of wild-type EZH2 (PRC2 complex) (O75530 whole entry partner): as the sequence (O75530 whole entry partner) above
Sequence of wild-type EZH2 (PRC2 complex) (Q15022 whole entry partner): as the sequence (Q15022 whole entry partner) above
Sequence of wild-type EZH2 (PRC2 complex) (Q09028 whole entry partner): as the sequence (Q09028 whole entry partner) above

| Structure (SMILES) | % Cell Remaining vs. Control ([1]; 1 μM) | % Cell Remaining vs. Control ([1]; 10 μM) | IC50 (CYP3A4/5 [2]; pH 7.4, probe midazolam) | IC50 (CYP3A4/5 [2]; pH 7.4, probe testosterone) | IC50 (CYP1A [3]) | KI (inactivation) (CYP3A4/5 [4]; [16]) | inactivation of CYP3A4/5 (in words) (CYP3A4/5 [4]) | IC50 (CYP2C9 [5]) | IC50 (CYP2D6) | CLint scaled [6] | reversible CYP inhibition (in words) [7] | metabolic clearance in human liver microsomes (in words) [8] | CLint scaled [8] | CLint scaled [9] | IC50 (CYP2C19) | IC50 (CYP2C8) | CLint scaled [10] | CLint scaled [11] | CYP1A % Positive Control (CYP1A [12]; 1 μM) | CYP1A % Positive Control (CYP1A [12]; 10 μM) | other results |
| --- | --- | --- | --- | --- | --- | --- | --- | --- | --- | --- | --- | --- | --- | --- | --- | --- | --- | --- | --- | --- | --- |
| CCN(c1cc(C#CCN2CCOCC2)cc(C(=O)NCc2c(C)cc(C)[nH]c2=O)c1C)[C@H]1CC[C@H](N(C)CCOC)CC1 [Compound 2, N-((4,6-dimethyl-2-oxo-1,2-dihydropyridin-3-yl)methyl)-3-(ethyl((trans)-4-((2-methoxyethyl)(methyl)amino)cyclohexyl)amino)-2-methyl-5-(3-morpholinoprop-1-yn-1-yl)benzamide] | 124.70% | 120.90% | > 100 µM | > 100 µM | > 100 µM | 22.3 µM | time-, concentration-, and NADPH-dependent inactivation of CYP3A4/5 | > 100 µM | > 100 µM | 34.3 mL/min/kg | no significant reversible inhibition | low metabolic clearance | 8.8 mL/min/kg | 14.8 mL/min/kg | > 100 µM | > 100 µM | 32.8 mL/min/kg | 17.6 mL/min/kg |  |  |  |
| CCN(c1cc(-c2ccc(OCCOC)cc2)cc(C(=O)NCc2c(C)cc(C)[nH]c2=O)c1C)[C@H]1CC[C@H](N(C)C)CC1 [Compound 1, N-((4,6-dimethyl-2-oxo-1,2-dihydropyridin-3-yl)methyl)-5-(((trans)-4-(dimethylamino)-cyclohexyl)(ethyl)-amino)-4′-(2-methoxyethoxy)-4-methyl-[1,1′-biphenyl]-3-carboxamide] | 107.44% | 99.00% | 40.5 µM | > 100 µM | > 100 µM | 6.4 µM | time-, concentration-, and NADPH-dependent inactivation of CYP3A4/5 | > 100 µM |  | 8.1 mL/min/kg | no significant reversible inhibition | low metabolic clearance | 10.5 mL/min/kg | 14.8 mL/min/kg | 89.6 µM | > 100 µM | 58.6 mL/min/kg | 15.4 mL/min/kg | 2.8% | 3.0% | KI (inactivation) (CYP3A4/5 [4]; human, human liver microsomes, pH 7.4, CYP3A4/5, footnote to ** not given, read-out: Time-Dependent Inactivation KI, second value in brackets marked **): 3.3 µM; CYP3A % Positive Control (CYP3A; 1 μM): 13.9%; CYP3A % Positive Control (CYP3A; 10 μM): 13.3%; CYP2B6 % Positive Control (CYP2B6; 1 μM): 18.0%; CYP2B6 % Positive Control (CYP2B6; 10 μM): 26.3%; tumors large enough for analysis at day 28 (Karpas-422 xenograft; 125 mg/kg BID x28, p.o.): 5 out of 10; tumors large enough for analysis at day 28 (Karpas-422 xenograft; 250 mg/kg BID x28, p.o.): 1 out of 10; tumors large enough for analysis at day 28 (Karpas-422 xenograft; 500 mg/kg BID x28, p.o.): too small for analysis; anti-tumor effect in Karpas-422 xenograft model (in words) (Karpas-422 xenograft; oral, BID, up to 28 days, 62.5-500 mg/kg): tumor stasis and regression; CYP2C9 % Positive Control (CYP2C9 [13]; 1 μM): 43.5%; CYP2C9 % Positive Control (CYP2C9 [13]; 10 μM): 52.6%; tolerability (in words) [14]: well tolerated |
| CCN(c1cc(C#CC2CCN(C)CC2)cc(C(=O)NCc2c(C)cc(C)[nH]c2=O)c1C)C1CCOCC1 [Compound 105, N-((4,6-Dimethyl-2-oxo-1,2-dihydropyridin-3-yl)methyl)-3-(ethyl(tetrahydro-2H-pyran-4-yl)amino)-2-methyl-5-((1-methylpiperidin-4-yl)ethynyl)benzamide] | 103.19% | 97.49% | 9.67 µM | > 100 µM | > 100 µM | 10.2 µM | time-, concentration-, and NADPH-dependent inactivation of CYP3A4/5 | 75.7 µM | 2.95 µM | 64.2 mL/min/kg | potentially significant inhibition of CYP2D6 and CYP3A4 (midazolam) | low metabolic clearance | 42.1 mL/min/kg | 47.5 mL/min/kg | 33.6 µM |  | 74.8 mL/min/kg | 54.7 mL/min/kg | 3.0% | 4.4% | CYP3A % Positive Control (CYP3A; 1 μM): 18.1%; CYP3A % Positive Control (CYP3A; 10 μM): 33.8%; CYP2B6 % Positive Control (CYP2B6; 1 μM): 25.5%; CYP2B6 % Positive Control (CYP2B6; 10 μM): 52.2%; CYP2C9 % Positive Control (CYP2C9 [13]; 1 μM): 50.4%; CYP2C9 % Positive Control (CYP2C9 [13]; 10 μM): 76.3%; IC50 (EZH2 (PRC2 complex)): 0.0084 µM; IC50 [15]: < 0.01 µM |
